Measurements reported in patent US20240216519A1, “SMALL HYDROPHOBIC PROTEIN DRUG CONJUGATES AND USES THEREOF” (priority 2021, published 2024).
“And” between values parts separate entries of the source, which are not always exact repeats. Equal entries are not always repeated. Where no end group is shown, it is not given here. TAMRA = carboxytetramethyl rhodamine on alpha-amino group of Met1

Assays:
C57BL/6J mice [1] = experiment: Food intake of fasted C57BL/6J mice after i.p. injection (Example 8); type: in vivo, mouse; details: 200 nmol/kg i.p.
Experimental: Female C57BL/6J mice were purchased from Charles Rivers. […] The animals were housed in individual cages, with access to food and water, and food intake was measured 1 and 2 hours after injection.

rat GLP-1 receptor = biological target: T1, rat GLP-1 receptor (Rattus norvegicus, UniProt P32301); experiment: cAMP accumulation, rat GLP-1 receptor; type: cell-based; details: rat GLP-1R-expressing HEK293 cells; read-out: EC50, intracellular cAMP accumulation
T1 construct: expressed in transfected cells; host or cells: COS-7 (methods)
T1 sequence (P32301 22-463): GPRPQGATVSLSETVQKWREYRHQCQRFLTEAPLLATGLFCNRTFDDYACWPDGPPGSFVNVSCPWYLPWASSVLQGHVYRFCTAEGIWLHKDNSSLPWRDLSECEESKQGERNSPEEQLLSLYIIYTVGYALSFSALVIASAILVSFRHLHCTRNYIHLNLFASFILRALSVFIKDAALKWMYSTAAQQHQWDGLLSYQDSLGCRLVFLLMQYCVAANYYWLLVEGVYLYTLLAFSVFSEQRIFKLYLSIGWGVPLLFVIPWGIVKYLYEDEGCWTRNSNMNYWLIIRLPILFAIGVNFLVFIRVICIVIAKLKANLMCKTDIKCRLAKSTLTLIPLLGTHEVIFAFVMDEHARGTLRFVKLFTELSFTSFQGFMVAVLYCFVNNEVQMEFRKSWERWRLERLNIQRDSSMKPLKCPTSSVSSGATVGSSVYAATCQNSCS
Experimental: (§1) Transient transfection of COS-7 cells was performed using calcium phosphate precipitation method. Briefly, a total of 10 ug of receptor DNA was diluted in TE-buffer ([…] Tris-HCl and 1 mM EDTA, pH 7.5) to a total of 105 ul, to which 15 ul of 2 M CaCl2) was added. The DNA-calcium co-precipitation was gently and slowly added to 120 ul 2× HEPES-buffered saline (HBS), and the transfection mixture was incubated at room temperature for 45 min. The total transfection mixture was added to the cells and incubated for 5 hours at 37° C. and 10% CO2, with the addition of 75 ul chloroquine to the growth medium. After 5 hours, the transfection medium was removed and replaced with regular growth medium. The cells were used in experiment 40-48 h after termination of the transfection procedure.
(§2) For the cAMP assay, the COS-7 cells were seeded into 96-well plates (35.000 cells/well) and washed with HBS prior to incubation with 100 ul […] isobutylmethylzanthine (IBMX) for 30 min at 37° C. […] After incubation, the medium was removed, and cells were treated according to the protocol ‘three reagent addition’ procedure for the HitHunter cAMP XS+Assay by DiscoverX, USA.

[2] = Plasma and CSF concentrations after injection into vena cava (RIA GLP-1 assay); type: in vivo; details: rat
Experimental: Male Sprague Dawley rats were purchased from Charles Rivers. Animals were anesthetized by hypnorm/dormicum, and restrained in a stereotactic instrument. […] Blood samples were collected prior to the injection of test compounds and straight after CSF aspiration.
The assay buffer was 100 mM Tris buffer with pH 8.5 containing 1% (wt/vol) human serum albumin, 0.01 mM valine-pyrrolidide and 500 KIE aprotinin (final concentrations). […] Plasma and CSF concentrations were measured after dilution in assay buffer. Free and bound moieties were separated with plasma-coated charcoal.

CaCo-2 cells = experiment: Transport study: diffusion of FITCs through tight monolayer of Caco2 cells; type: cell-based; details: basal addition of FITCs together with ligand
Experimental: CaCo-2 cells were seeded in transwell chambers (basal) and two times TEER was measured until day 17-21 post seeding. TEER experiments were performed afte 17-21 days post seeding in wells with higher TEER as 1000 ohms (proof of a tight cell monolatyer. Caco2 cells were infected basal with mumps virus (MuV Jerryl Lynn strain, WT or SH-protein deletion virus) at a multiplicity of infection of 3. TEER was measured continuously performing CellZcope experiments.
Transport studies were performed until day 17-21 post seeding as described above for the Cellzcope experiments. Ligand or control induced changes in the tightness of the cell monolayer was measured passively by the basal addition of the fluorescence dye (FITCs) together with the ligands or controls. Increase of FITCs apical was detected by collecting samples after different time points.

C57BL/6J mice [3] = experiment: Acute food intake in lean mice, s.c. (Example 10); type: in vivo, mouse
Experimental: Female C57BL/6J mice were purchased from Charles Rivers. One week before study initiation the mice were single housed with free access to food and water. […] Thirty minutes prior peptide injection, all mice were administered subcutaneously with DDP-4 inhibitor Valine-pyrrolidide (1.5 mg/mouse). Food intake was measured after 1, 2, 4 and 14 hours (FIG. 14A-D).
Results shown are combined data from five studies with an identical study design as described above. Between each study mice had at least one week washout period.

human GLP-1 receptor = human GLP-1 receptor (Homo sapiens, UniProt P43220); experiment: cAMP accumulation, human GLP-1 receptor; type: cell-based; set-up: expressed in transfected cells; host or cells: COS-7 (methods)
Chain of human GLP-1 receptor (P43220 24-463): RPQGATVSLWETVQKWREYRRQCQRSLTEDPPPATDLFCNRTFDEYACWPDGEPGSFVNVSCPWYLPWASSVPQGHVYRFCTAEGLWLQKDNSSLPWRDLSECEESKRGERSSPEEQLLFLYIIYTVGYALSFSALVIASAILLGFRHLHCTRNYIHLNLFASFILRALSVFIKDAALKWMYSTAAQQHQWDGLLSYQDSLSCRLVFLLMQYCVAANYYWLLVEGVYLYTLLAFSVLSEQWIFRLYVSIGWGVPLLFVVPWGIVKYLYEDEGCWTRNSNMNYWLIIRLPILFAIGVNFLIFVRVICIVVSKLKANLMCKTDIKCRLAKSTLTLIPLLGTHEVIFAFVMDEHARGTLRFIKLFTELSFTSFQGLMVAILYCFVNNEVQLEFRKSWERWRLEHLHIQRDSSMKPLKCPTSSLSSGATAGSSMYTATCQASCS
Experimental: as §1, §2

[4] = test system: Diet induced obese C57BL/6NTac male mice; experiment: Acute food intake in diet induced obese mice, s.c. (Example 11); type: in vivo, mouse; details: 15 nmol/kg s.c.
Experimental: Diet induced obese C57BL/6NTac male mice were purchased from Taconic and continued on a high fat high sucrose diet with free access to water. One week after arrival, animals were double or single housed. […] Thirty minutes prior peptide injection, all mice were administered subcutaneously with DDP-4 inhibitor Valine-pyrrolidide (3 mg/mouse). Food intake was measured after 1, 2, 4 and 14 hours (FIG. 15A-D).

[5] = test system: choroid plexus of the WT mouse brain; experiment: TAMRA labelled SH-protein binding to cryo-sections, WT mouse brain; details: 1 h incubation
Experimental: (§3) SH protein (SEQ ID NO: 74) with a N-terminal carboxytetramethyl rhodamine attached through its carboxyl-group to the N-terminal alpha amino-group of the first Methionine was used for making the TAMRA labelled SH-protein (SEQ ID NO: 129). A mixture of 5-(and-6)-Carboxytetramethylrhodamine was used.
(§4) A whole body perfusion was performed of mice and brains were dissected and frozen at −80C. Cryo-sections of mouse brains (WT and GPR125 KO mouse (Spina et al. 2021)) were generated and the TAMRA-labelled SH-protein was incubated on the cryosections at different concentrations or buffer. Afterwards the sections were mounted with mounting media containing a DAPI stain.

[6] = test system: choroid plexus of the GPR125 KO mouse brain; experiment: TAMRA labelled SH-protein binding to cryo-sections, GPR125 KO mouse brain; details: 1 h incubation
Experimental: as §3, §4

[7] = CSF 10 min after i.v. injection

CC[C@H](C)[C@H](NC(=O)[C@H](C)NC(=O)[C@@H]1CCCN1)C(=O)N[C@@H](CCC(N)=O)C(=O)N1CCC[C@H]1C(=O)N1CCC[C@H]1C(=O)N[C@@H](CC(C)C)C(=O)N[C@@H](Cc1ccc(O)cc1)C(=O)N[C@@H](CC(C)C)C(=O)N[C@H](C(=O)NCCOCCOCC(=O)NCCCC[C@H](NC(=O)[C@H](C)NC(=O)[C@H](C)NC(=O)[C@H](CCC(N)=O)NC(=O)CNC(=O)[C@H](CCC(=O)O)NC(=O)[C@H](CC(C)C)NC(=O)[C@H](Cc1ccc(O)cc1)NC(=O)[C@H](CO)NC(=O)[C@H](CO)NC(=O)[C@@H](NC(=O)[C@H](CC(=O)O)NC(=O)[C@H](CO)NC(=O)[C@@H](NC(=O)[C@H](Cc1ccccc1)NC(=O)[C@@H](NC(=O)CNC(=O)[C@H](CCC(=O)O)NC(=O)[C@H](C)NC(=O)[C@@H](N)Cc1c[nH]cn1)[C@@H](C)O)[C@@H](C)O)C(C)C)C(=O)N[C@@H](CCC(=O)O)C(=O)N[C@@H](Cc1ccccc1)C(=O)N[C@H](C(=O)N[C@@H](C)C(=O)N[C@@H](Cc1c[nH]c2ccccc12)C(=O)N[C@@H](CC(C)C)C(=O)N[C@H](C(=O)N[C@@H](CCCNC(=N)N)C(=O)NCC(=O)N[C@@H](CCCNC(=N)N)C(N)=O)C(C)C)[C@@H](C)CC)[C@@H](C)O [SH(2-11)-GLP-1(7-36)]
food intake compared to vehicle (C57BL/6J mice [1]; 1 hour after injection): decreases the food intake significantly
food intake compared to vehicle (C57BL/6J mice [1]; 2 hours after injection): decreases the food intake significantly
EC50 (rat GLP-1 receptor): 0.13 nM
level at time molar at 10 min ([2]; male, Sprague Dawley, cerebrospinal fluid (CSF), iv, CSF 10 minutes after injection into vena cava, SH(2-11)-GLP-1 500, GLP-1 50 (injection), read-out: CSF conc): 277 µM
detectable in CSF by RIA GLP-1 assay ([2]; 10 min after i.v. injection): detectable
amount detectable within the CSF, of the total injected concentration [2, 7]: approximately 55%
concentrated more in the CSF compared to GLP-1(7-36) [2, 7]: 10 times
Ratio (CSF conc to injection conc) ([2]; CSF 10 minutes after injection): 0.554
higher presence within the CSF ([2]; compared to GLP-1(7-36)): 10 fold
integrity of tight monolayer of CaCO-2 cells (uptake of fluorescent dye FITCs) (CaCo-2 cells): decreased integrity
food intake compared to vehicle (C57BL/6J mice [3]; 15 nmol/kg s.c., after 1 hour): decreased food intake significantly
food intake compared to vehicle (C57BL/6J mice [3]; 15 nmol/kg s.c., after 2 hours): decreased food intake significantly
food intake compared to vehicle (C57BL/6J mice [3]; 15 nmol/kg s.c., after 4 hours): decreased food intake significantly
food intake compared to vehicle (C57BL/6J mice [3]; 30 nmol/kg s.c., after 1 hour): decreased their food intake significantly
food intake compared to vehicle (C57BL/6J mice [3]; 30 nmol/kg s.c., after 2 hours): decreased their food intake significantly
food intake compared to vehicle (C57BL/6J mice [3]; 30 nmol/kg s.c., after 4 hours): still present
food intake compared to vehicle (C57BL/6J mice [3]; 30 nmol/kg s.c., after 14 hours): significant lower food intake
EC50 (human GLP-1 receptor): 0.13 nM
food intake compared to vehicle ([4]; after 1 hour, conjugate also vs GLP-1(7-36)): decreased food intake significantly
food intake compared to vehicle ([4]; after 2 hours, conjugate also vs GLP-1(7-36)): decreased food intake significantly
food intake compared to vehicle ([4]; after 4 hours, conjugate also vs GLP-1(7-36)): decreased food intake significantly
food intake compared to vehicle ([4]; after 14 hours): significantly decreased

TAMRA labelled SH-protein: SH protein (SEQ ID NO: 74) with N-terminal carboxytetramethyl rhodamine on the alpha amino-group of the first Methionine ({TAMRA}-MPAIQPPLYLTFLLLILLYLIITLYVWIILTVTYKTAVRHAALYQRSFFHWSFDHSL)
concentration at which binding to the choroid plexus is still seen [5]: 2,25 UM
concentrations at which binding to the choroid plexus is seen (only at higher concentrations) [6]: 22 µM and 11 µM
